Laboratory results published in patent US20250320496A1, “MODULATION OF ABCB11 GENE TRANSCRIPTION USING ANTISENSE OLIGONUCLEOTIDES TARGETING REGULATORY RNAS” (CAMP4 Therapeutics Corporation, priority 2022, published 2025).
Strand notation (5' to 3'): a small letter for the sugar, then the base; units joined by * are phosphorothioate-linked, units joined directly phosphodiester-linked; [ ] holds rarer units or linkages, { } end groups; capitals alone tell only the bases. e = 2'-O-(2-methoxyethyl) (MOE); l = locked nucleic acid (LNA); [5mC] = 5-methylcytosine; d = 2'-deoxy (DNA)

System: human ABCB11 mRNA
Assay: ASO treatment of primary human hepatocytes (PHH), ABCB11 mRNA by RT-qPCR normalized to B2M
Format: cell-based
Details: for ABCB11 mRNA FC (5 μM ASO vs. UNT) / ABCB11 FC mRNA (5 μM ASO vs. untreated): primary human hepatocytes; for ABCB11 mRNA FC (5 μM ASO vs. UNT): normalized to untreated PHHs (UNT); for ABCB11 FC mRNA (5 μM ASO vs. untreated): 5 μM ASO with PO-modifications, normalized to untreated hepatocytes
Method in brief: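 Plated primary human hepatocytes were treated 4 h post-thaw with ASO (e.g., 1.25–10 μM; initial screen 5 μM) in medium containing 0.3 mg/ml Matrigel for 72 hrs. Total RNA was reverse-transcribed and ABCB11 mRNA measured by Taqman RT-qPCR, normalized to B2M, with fold change versus untreated PHHs.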

Substance | ABCB11 mRNA FC (5 μM ASO vs. UNT) [fold change] | upregulation of ABCB11 mRNA (PHHs, Day 3, normalized to untreated PHHs) | ABCB11 FC mRNA (5 μM ASO vs. untreated) [fold change]
CO-4060 (antisense eG*eG*eA*eGeT*eGeA*eGeA*eG*eG*e[5mC]*eA*eT*eT*eT*eA*eG*eG*eG) | 1.117 |  | 
CO-7157 (antisense eG*eT*eG*eG*eA*dG*d[5mC]*dA*dA*dA*d[5mC]*dT*dA*dG*dG*e[5mC]*eA*e[5mC]*eT*eG) | 1.195 |  | 
CO-7053 (antisense e[5mC]*e[5mC]*eT*e[5mC]*eA*e[5mC]*e[5mC]*eT*eT*eG*eG*eT*eT*e[5mC]*e[5mC]*e[5mC]*e[5mC]*e[5mC]*eT*eG) | 1.145 |  | 
CO-7206 (eT*eT*eG*eG*e[5mC]*lG*dT*dT*lA*dT*dT*dA*dA*lT*dT*d[5mC]*lT*eA*e[5mC]*eA*eG*eA; antisense) | 1.164 |  | 
CO-4020 (antisense e[5mC]*eA*eT*eG*eT*eA*eT*e[5mC]*eA*eA*eT*e[5mC]*eT*e[5mC]*eT*eT*eA*eG*eA*eG) | 1.201 |  | 
CO-3992 (antisense eT*eG*eT*eT*eT*e[5mC]*e[5mC]*eT*eA*eG*eT*eA*e[5mC]*e[5mC]*eA*eA*eG*eA*eA*eT) | 1.388 |  | 
CO-7171 (antisense eA*eG*eT*e[5mC]*eT*eT*eA*eT*eT*eT*eG*eG*e[5mC]*eG*eT*eT*eA*eT*eT*eA) | 1.46 |  | 
CO-3984: ASO targeting the paRNA regRNA RR63 (antisense e[5mC]*eA*eT*eT*eT*eA*eG*eA*eG*eA*e[5mC]*eA*eA*eA*eG*eA*eA*eT*e[5mC]*eG) | 1.111 | approximately 1.5 fold | 
CO-12752 (antisense eG*eTeG*eA*eG*eGe[5mC]*eA*eT*e[5mC]eA*eG*eG*eTeA*eA*eG*eTeT*e[5mC]) |  |  | 0.99
CO-6982 (antisense eA*eA*eG*eA*e[5mC]*eA*eG*eA*eA*eG*eT*eG*eA*eG*eG*e[5mC]*eA*eT*e[5mC]*eA) | 0.976 |  | 
CO-11221 (antisense eG*eTlG*eGlA*eGl[5mC]*eAlA*eAl[5mC]*eTlA*eGlG*e[5mC]lA*e[5mC]eT*eG) |  |  | 2.00
CO-4484 (antisense eG*e[5mC]*eT*eA*eA*eT*e[5mC]*e[5mC]*eA*eA*e[5mC]*e[5mC]*eA*e[5mC]*eT*eT*e[5mC]*eA*eA*e[5mC]) | 1.113 |  | 
CO-6974 (antisense eT*eG*eG*eG*eA*eA*eG*eT*eT*eT*eA*eA*eA*eA*eA*eA*eT*eG*eG*eG) | 1.394 |  | 
CO-7151: derivative ASO with additional chemical modifications based on parent ASO CO-4517 (antisense e[5mC]*e[5mC]*eT*eT*eA*lG*dG*dA*lG*dG*dA*dT*dT*lA*dT*dT*lT*eA*eA*e[5mC]*e[5mC]*eT) | 1.498 |  | 
CO-12753 (antisense eG*eTeG*eA*eGeG*e[5mC]*eAeT*e[5mC]*eAeG*eG*eTeA*eA*eGeT*eT*e[5mC]) |  |  | 1.03
CO-4524 (antisense e[5mC]*eA*eG*eA*eG*eA*eA*eA*e[5mC]*e[5mC]*eT*eA*eA*eA*eA*eT*eT*eG*eA*eG) | 1.243 |  | 
CO-11213 (antisense eG*eTlGeGlAeGl[5mC]*eA*lA*eA*l[5mC]*eT*lA*eGlGe[5mC]lAe[5mC]eT*eG) |  |  | 1.95
CO-7147 (antisense e[5mC]*eT*eT*eA*lG*eG*eA*eG*eG*lA*eT*eT*eA*eT*lT*eT*eA*eA*e[5mC]*e[5mC]) | 1.272 |  | 
CO-7013 (antisense eA*eG*eT*eG*eA*eG*dG*d[5mC]*dA*dT*d[5mC]*dA*dG*dG*dT*dA*eA*eG*eT*eT*e[5mC]*e[5mC]) | 0.997 |  | 
CO-4015 (antisense eG*eT*eT*eT*eG*e[5mC]*eT*e[5mC]*eT*eG*eA*eT*eA*eA*eT*e[5mC]*eA*e[5mC]*eA*eG) | 1.043 |  | 
